Assays:
MV4-11 cells = assay: Leukemia cell line CC50 assay (Cell Counting Kit-8, 5 days), MV4-11; assay type: cell-based; conditions: Homo sapiens, MV4-11, 120 h, AML, MV411 cell line
Protocol: MV4-11 cells (human B-myelomonocytic leukemia) from ATCC Cat no. CRL-9591 were grown in complete cell medium: IMDM (w. GLUTAMAX-1) Cat no. 31980022 (Fisher Scientific), 10% Fetal Bovine serum (FBS) HyClone Cat. no. SV30160.03, lot no RAB35924 (GE Healthcare Life Sciences), Penicillin 50 u/ml/Streptomycin 0.05 mg/ml PAA Cat. no. P11-010 from Fisher Scientific.
(§1) Leukemia cells were grown in a cell culture flask 75 cm2 with approximately 100 ml complete cell medium. The cells were counted using a Scepter-hand held automated cell counter, using 60 μm sensors (Millipore) and suspended in complete cell medium to 2×10^5cells. 100 μl of the cell suspension were seeded to all wells (2×10^4 cells/well).
(§2) The compounds were tested in twelve concentrations, […], 50 ? BM−5×10^−10 μM. 100 μl from a compound dilution plate were transferred to the cell assay plate=200 μl/well total volume and incubated for 5 days, at 37° C., 5% CO2 incubator.
(§3) After 5 days, 10 μl of KIT-8 was added and the culture was incubated for 3-4 hours, at 37° C., 5% CO2 incubator.
(§4) Plate were read in the spectrophotometer at wavelength 450 nm with a reference filter of 620 nm.
(§5) CC50 values are calculated by plotting the degree of inhibition (compared to the vehicle ctrl) against the logarithm of the compound concentration. […]

THP-1 cells = assay: Leukemia cell line CC50 assay (Cell Counting Kit-8, 5 days), THP-1; assay type: cell-based; conditions: Homo sapiens, THP-1, 120 h, AML, THP1 cell line
Protocol: (§6) THP-1 cells (human acute monocytic leukemia) from ATCC Cat. no TIB-202 were grown in complete cell medium: RPMI-1640 medium Gibco Cat. no.11835-063 (Fisher Scientific), 10% Fetal Bovine serum (FBS), HyClone Cat. no. SV30160.03, lot no RAB35924 (GE Healthcare Life Sciences), Penicillin 50 u/ml/Streptomycin 0.05 mg/ml PAA Cat. no. P11-010 from Fisher Scientific.
as §1, §2, §3, §4, §5

HL60 cells = assay: Leukemia cell line CC50 assay (Cell Counting Kit-8, 5 days), HL60; assay type: cell-based; conditions: Homo sapiens, HL-60, 120 h, AML
Protocol: HL60 cells (human acute promyelocytic leukemia) from ATCC Cat. no CCL-240 were grown in complete cell medium: IMDM Cat. no 330-2005 (ATCC), 20% Fetal Bovine serum (FBS) HyClone Cat. no. SV30160.03, lot no RAB35924 (GE Healthcare Life Sciences), Penicillin 50u/ml/Streptomycin 0.05 mg/ml PAA Cat. no. P11-010 from Fisher Scientific
as §1, §2, §3, §4
CC50 values are calculated by plotting the degree of inhibition (compared to the vehicle ctrl) against the logarithm of the compound concentration. Result values in the dilution series are fitted to a 4-parameter sigmoidal dose-response curve described by the expression: […]

U-937 cells = assay: Leukemia cell line CC50 assay (Cell Counting Kit-8, 5 days), U-937; assay type: cell-based; conditions: Homo sapiens, U-937, 120 h, AML, U937 cell line
Protocol: as §6, with “U-937” for “THP-1”, “histiocytic lymphoma)” for “acute monocytic leukemia)”, “CRL-1593.2” for “TIB-202”, “50u/ml/Streptomycin” for “50 u/ml/Streptomycin”
as §1, §2, §3, §4, §5

K-562 cells = assay: Leukemia cell line CC50 assay (Cell Counting Kit-8, 5 days), K-562; assay type: cell-based; conditions: Homo sapiens, 120 h, CML, K562 cell line
Protocol: K-562 cells (human chronic myelogenous leukemia) from ATCC Cat. no CCL-243 were grown in complete cell medium: IMDM (w. L-glutamine, 25 mM Hepes, w/o Phenol red) Cat no. 21056-023 (Fisher Scientific), 10% Fetal Bovine serum (FBS) HyClone Cat. no. SV30160.03, lot no RAB35924 (GE Healthcare Life Sciences), Penicillin 50u/ml/Streptomycin 0.05 mg/ml Cat. no. SV30010 HyClone (Fisher Scientific)
as §1, §2, §3, §4, §5

MOLT-4 cells = assay: Leukemia cell line CC50 assay (Cell Counting Kit-8, 5 days), MOLT-4; assay type: cell-based; conditions: Homo sapiens, 120 h, ALL (T cell), MOLT-4 cell line
Protocol: as §6, with “MOLT-4” for “THP-1”, “(human T-cell,” for “(human”, “lymphoblastic” for “monocytic”, “CRL-1582” for “TIB-202”, “(FBS)” for “(FBS),”, “Scientific” for “Scientific.”
as §1, §2, §3, §4, §5

Raji cells = assay: Leukemia cell line CC50 assay (Cell Counting Kit-8, 5 days), Raji; assay type: cell-based; conditions: Homo sapiens, 120 h, BL (B cell)
Protocol: as §6, with “Raji” for “THP-1”, “(B-lymphocyte from Burkitt's lymphoma)” for “(human acute monocytic leukemia)”, “CCL-86” for “TIB-202”
as §1, §2, §3, §4, §5

CEM cells = assay: Leukemia cell line CC50 assay (Cell Counting Kit-8, 5 days), CEM; assay type: cell-based; conditions: Homo sapiens, CCRF-CEM, 120 h, ALL (T cell)
Protocol: CEM cells (T-lymphoblast from acute lymphoblastic leukemia) acquired from Swedish Institute for Infectious Disease Control (SMI) were grown in complete cell medium: RPMI-1640 medium (without L-glutamine) Cat. no. R7509 (Sigma Aldrich), 10% Fetal Bovine serum (FBS) HyClone Cat. no. SV30160.03, lot no RAB35924 (GE Healthcare Life Sciences), Penicillin 50u/ml/Streptomycin 0.05 mg/ml PAA Cat. no. P11-010 from Fisher Scientific, 2 mM Ultra glutamine 1 Cat. no BE17-605E/U1 (Lonza). • Cell culture flask 75 cm2, Cat. no. 83.1813 from Sarstedt AB. • Compound dilution plate, 96-well, V-bottom PP plate, Nunc Cat. no.249944 from Thermo Scientific. • Cell assay plate, 96-well, Cat. no. 128009296 from Fisher Scientific • Cell Counting Kit-8 CK04 from Dojindo. • Test compounds were made up to 10 mM stock solution in DMSO
as §1, with “cells/well). […]” for “cells/well).”
as §4, §5

leukemia cell lines = assay: Average CC50 over the leukemia cell lines of Table 1; assay type: cell-based; conditions: average over the leukemia cell lines of Table 1
Protocol: as §1
CC50 values are calculated by plotting the degree of inhibition (compared to the vehicle ctrl) against the logarithm of the compound concentration. Result values in the dilution series are fitted to a 4-parameter sigmoidal dose-response curve described by the expression:
[formula] where: • A=Minimum • B=Slope. • C=Inflection point. The inflection point is defined as the point on the curve where the curvature changes direction or signs. • D=Maximum • F=fraction inhibition • The CC50 value is the x-value giving F=0.5, as tabulated in Table 1 below: […]

[1] = Tolerability in SCID mice with human Hep3b xenograft (body weight, clinical signs); assay type: in vivo, mouse; conditions: 25 mg/kg i.p. BID x 5, SCID mice
Protocol: Compounds were prepared in PBS, n=9 mice per group. Body weights were monitored daily in three SCID mouse populations:
wherein the 5 day BID commenced 21 days after subcutaneous implantation with a human Hep3b xenograft.

[2] = system: advanced, cytarabine-treatment failure, leukemia; conditions: cited from earlier work
[3] = Blood stability, murine whole blood; assay type: in vitro ADME
Protocol: Stability of compounds in blood was assessed following incubation in murine or human whole blood for up to 120 minutes. Remaining compound was quantified by LC-MS/MS and resulting data were used to calculate intrinsic clearance (CLint) values: […]

stability in mouse blood [3]	SMILES	CC50 (MV4-11 cells) [µM]	CC50 (THP-1 cells) [µM]	CC50 (HL60 cells) [µM]	CC50 (U-937 cells) [µM]	CC50 (K-562 cells) [µM]	CC50 (MOLT-4 cells) [µM]	CC50 (Raji cells) [µM]	CC50 (CEM cells) [µM]	CC50 (leukemia cell lines) [µM]	tolerability observations (bodyweight, clinical signs) [1]	patients with transient decrease in peripheral blood and marrow blasts [2]
–	CC[C@@H](C)OC(=O)[C@H](C)NP(=O)(OC[C@H]1OC[C@@H](n2cc(F)c(N)nc2=O)O1)Oc1ccccc1 (single isomer, unassigned) [Prior art Ex 32 dia 2, reference compound]	0.0081	0.2	0.89	0.24	0.44	0.0038	1	0.052	0.35	–	–
–	CCC[C@H](C)OC(=O)[C@H](C)NP(=O)(OC[C@H]1OC[C@@H](n2cc(F)c(N)nc2=O)O1)Oc1cccc(C2CC2)c1 (single isomer, unassigned) [Prior art Ex 29 dia-2, reference compound]	0.0078	0.25	–	0.24	0.72	0.0029	0.85	0.098	0.31	–	–
–	Nc1ccn([C@@H]2CO[C@H](CO)O2)c(=O)n1 [troxacitabine]	–	–	–	–	–	–	–	–	–	persistent bodyweight loss and clinical signs including piloerection, hunched posture and subdued behavior	Four
stable in mouse blood	Nc1nc(=O)n([C@@H]2CO[C@H](CO)O2)cc1F [5-fluorotroxacitabine, 4-amino-5-fluoro-1-((25,4S)-2-(hydroxymethyl)-1,3-dioxolan-4-yl)pyrimidin-2(1H)-one, reference compound]	–	–	–	–	–	–	–	–	–	–	–

Source: patent US12479870B2, “Base-modified cytidine nucleotides for leukemia therapy” (MEDIVIR AB, priority 2018, dated 2025)
